How the values were obtained:
human μ opiate receptor = molecular target: T1, human μ opiate receptor (Homo sapiens, UniProt P35372); experiment: Affinity for the human μ opiate receptor ([3H]-naloxone displacement, CHO-K1 receptor membrane preparation, SPA); format: binding; conditions: for μ (binding on the μ opioid receptor, % inhibition): test concentration of 1 μM; for inhibition at 1 µM: 1.5 h, read-out: μ receptor
T1 construct: purchased PerkinElmer Life Sciences, Zaventem, Belgium RB-HOM; host or cells: CHO-K1 cells (membrane preparation)
T1 sequence (P35372 whole entry): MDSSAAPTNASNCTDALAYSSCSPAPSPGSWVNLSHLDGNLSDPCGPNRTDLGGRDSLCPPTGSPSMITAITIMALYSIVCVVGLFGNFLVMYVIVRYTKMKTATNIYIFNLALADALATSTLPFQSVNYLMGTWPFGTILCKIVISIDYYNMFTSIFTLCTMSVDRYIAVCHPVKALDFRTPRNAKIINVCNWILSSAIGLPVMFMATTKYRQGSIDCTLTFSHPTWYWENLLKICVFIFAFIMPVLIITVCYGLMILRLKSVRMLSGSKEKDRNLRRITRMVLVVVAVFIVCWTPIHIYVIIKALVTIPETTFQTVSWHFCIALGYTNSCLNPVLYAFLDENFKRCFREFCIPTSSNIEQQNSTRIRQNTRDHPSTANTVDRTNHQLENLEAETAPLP
Procedure, shortened: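 Scintillation proximity binding on human μ receptor membranes from CHO-K1 cells used 1 nmol/l [3H]-naloxone over 90 min at room temperature in 50 mmol/l Tris-HCl, 0.06% BSA. Percent inhibition was recorded at 1 μM.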

[1] = molecular target: T2, serotonin (5-HT) reuptake (Rattus norvegicus, UniProt P31652); experiment: Inhibition of serotonin (5HT) reuptake in synaptosomes from rat brain; format: biochemical; conditions: for 5-HT (inhibition of reuptake of serotonin, % inhibition): test concentration of 10 μM; for inhibition at 10 µM: read-out: 5-HT reuptake
T2 construct: synaptosomes are freshly isolated from areas of the rat brain; from tissue; host or cells: rat brain synaptosomes (P2 fraction)
T2 sequence (P31652 whole entry): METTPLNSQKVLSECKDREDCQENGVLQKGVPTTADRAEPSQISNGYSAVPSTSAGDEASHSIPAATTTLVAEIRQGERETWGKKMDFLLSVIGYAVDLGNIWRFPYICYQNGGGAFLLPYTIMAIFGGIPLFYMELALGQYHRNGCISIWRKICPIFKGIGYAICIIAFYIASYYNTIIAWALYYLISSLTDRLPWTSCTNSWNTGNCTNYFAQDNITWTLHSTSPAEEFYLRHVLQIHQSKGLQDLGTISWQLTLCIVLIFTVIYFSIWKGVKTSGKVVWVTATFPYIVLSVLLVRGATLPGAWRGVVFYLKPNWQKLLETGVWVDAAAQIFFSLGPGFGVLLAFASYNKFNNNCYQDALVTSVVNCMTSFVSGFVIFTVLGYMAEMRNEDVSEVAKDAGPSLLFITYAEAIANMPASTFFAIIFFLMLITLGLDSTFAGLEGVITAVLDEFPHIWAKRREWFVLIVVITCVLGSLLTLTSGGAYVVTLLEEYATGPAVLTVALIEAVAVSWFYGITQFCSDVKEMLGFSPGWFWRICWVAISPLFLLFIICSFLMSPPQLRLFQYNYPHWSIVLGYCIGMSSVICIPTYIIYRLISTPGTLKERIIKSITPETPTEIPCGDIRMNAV
Procedure, shortened: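 Freshly isolated rat brain synaptosomes (P2 fraction) used for 5-HT reuptake. Test compound at 10 μM, activity given as % inhibition.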

[2] = Table 2, test concentration 1 μM
[3] = Table 2, test concentration 10 μM

| Compound | μ (binding on the μ opioid receptor, % inhibition) (human μ opiate receptor) [%] | 5-HT (inhibition of reuptake of serotonin, % inhibition) [1] [%] | further results |
| --- | --- | --- | --- |
| CN(C)C(c1cccs1)C1CCC(CNC(=O)COC2CCN(S(=O)(=O)c3ccccc3)CC2)CC1 (stereo not drawn) [Example 276] | 78 | 93 | – |
| COc1ccc(S(=O)(=O)N2Cc3ccccc3CC2COCC(=O)NC2CCC(C(c3ccc(F)cc3)N(C)C)CC2)cc1 (stereo not drawn) [Example 234] | 76 | 95 | – |
| COc1cc(C)c(S(=O)(=O)N2CCC(OCC(=O)NCC3CCC(C(c4cccc(F)c4)N(C)C)CC3)C2)c(C)c1C (stereo not drawn) [Example 252] | 82 | 93 | – |
| CN(C)C(c1ccccc1)C1CCC(NC(=O)COCC2CCCN2S(=O)(=O)c2c(Cl)cc(Cl)cc2Cl)CC1 (stereo not drawn) [Example 613, N-[4-(Dimethylaminophenylmethyl)-cyclohexyl]-2-[1-(2,4,6-trichlorobenzenesulfonyl)-pyrrolidin-2-ylmethoxy]-acetamide] | – | – | μ receptor (human μ opiate receptor; [2]): 90 % inhibition; 5-HT reuptake [1, 3]: 62 % inhibition |
| COc1cc(C)c(S(=O)(=O)N2CCN(CCOCC(=O)NC3CCC(C(c4ccc(F)cc4)N(C)C)CC3)CC2)c(C)c1C (stereo not drawn) [Example 222] | 77 | 92 | – |
| Cc1ccc(S(=O)(=O)N(C)CCOCC(=O)NC2CCC(C(c3cccc(F)c3)N(C)C)CC2)cc1 (stereo not drawn) [Example 226] | 74 | 91 | – |
| COc1cc(C)c(S(=O)(=O)N(CCOCC(=O)NCC2CCC(C(c3ccccc3)N(C)C)CC2)Cc2ccccc2)c(C)c1C (stereo not drawn) [Example 201] | 88 | 89 | – |
| COc1ccc(S(=O)(=O)N(C)CCOCC(=O)NCC2CCC(C(c3ccccc3)N(C)C)CC2)cc1 (stereo not drawn) [Example 242] | 77 | 77 | – |
| COc1cc(C)c(S(=O)(=O)N2CCC(OCC(=O)NCC3CCC(C(c4cccc(F)c4)N(C)C)CC3)C2)c(C)c1 (stereo not drawn) [Example 265] | 79 | 95 | – |
| COc1ccc(S(=O)(=O)N2CCCC2COCC(=O)NC2CCC(C(c3cccc(F)c3)N(C)C)CC2)cc1 (stereo not drawn) [Example 268] | 70 | 92 | – |
| COc1ccc(S(=O)(=O)N2CCCCC2CCOCC(=O)NCC2CCC(C(c3cccc(F)c3)N(C)C)CC2)cc1 (stereo not drawn) [Example 203] | 83 | 93 | – |
| CN(C)C(c1ccc(F)cc1)C1CCC(CNC(=O)COCCN(C)S(=O)(=O)c2ccc(Cl)cc2Cl)CC1 (stereo not drawn) [Example 249] | 70 | 95 | – |
| CN(C)C(c1cccc(F)c1)C1CCC(CCNC(=O)COC2CCN(S(=O)(=O)c3ccc(Cl)cc3)C2)CC1 (stereo not drawn) [Example 247] | 75 | 89 | – |
| Cc1ccc(S(=O)(=O)N(C)CCOCC(=O)NCC2CCC(C(c3ccc(Cl)cc3)N(C)C)CC2)cc1 (stereo not drawn) [Example 273] | 68 | 91 | – |
| CN(C)C(c1ccccc1)C1CCC(NC(=O)COC2CCN(S(=O)(=O)c3c(Cl)cc(Cl)cc3Cl)C2)CC1 (stereo not drawn) [Example 609, N-[4-(dimethylaminophenylmethyl)-cyclohexyl]-2-[1-(2,4,6-trichlorobenzenesulfonyl)-pyrrolidin-3-yloxy]-acetamide] | – | – | inhibition at 1 µM (human μ opiate receptor; [2]): 94%; inhibition at 10 µM [1, 3]: 86% |
| CN(C)C(c1cccc(F)c1)C1CCC(CCNC(=O)COCCN(C)S(=O)(=O)c2ccc(F)cc2)CC1 (stereo not drawn) [Example 218] | 82 | 101 | – |
| Cc1ccc(S(=O)(=O)N2CCC(OCC(=O)NCCC3CCC(C(c4cccc(F)c4)N(C)C)CC3)C2)cc1 (stereo not drawn) [Example 216] | 72 | 87 | – |
| COc1cc(C)c(S(=O)(=O)N(CCOCC(=O)NCCC2CCC(C(c3cccs3)N(C)C)CC2)Cc2ccccc2)c(C)c1C (stereo not drawn) [Example 254] | 83 | 94 | – |
| COc1ccc(S(=O)(=O)N2CCCCC2CCOCC(=O)NCCC2CCC(C(c3cccc(F)c3)N(C)C)CC2)cc1 (stereo not drawn) [Example 213] | 87 | 98 | – |
| CN(C)C(c1ccc(F)cc1)C1CCC(CNC(=O)COCC2CCCN2S(=O)(=O)c2ccc(Cl)c(Cl)c2)CC1 (stereo not drawn) [Example 267] | 73 | 94 | – |
| CN(C)C(c1cccc(F)c1)C1CCC(CNC(=O)COC2CCN(S(=O)(=O)c3ccc(Cl)cc3)C2)CC1 (stereo not drawn) [Example 258] | 80 | 84 | – |
| CN(C)C(c1ccc(Cl)cc1)C1CCC(CNC(=O)COCCN(C)S(=O)(=O)c2c(Cl)cccc2Cl)CC1 (stereo not drawn) [Example 207] | 77 | 72 | – |
| CN(C)C(c1cccc(F)c1)C1CCC(CNC(=O)COC2CCN(S(=O)(=O)c3ccc(F)cc3)C2)CC1 (stereo not drawn) [Example 275] | 71 | 80 | – |
| COc1ccc(S(=O)(=O)N2CCCCC2COCC(=O)NC2CCC(C(c3cccc(F)c3)N(C)C)CC2)cc1 (stereo not drawn) [Example 255] | 72 | 91 | – |
| COc1cc(C)c(S(=O)(=O)N2CCC(OCC(=O)NCCC3CCC(C(c4cccc(F)c4)N(C)C)CC3)CC2)c(C)c1C (stereo not drawn) [Example 232] | 78 | 98 | – |
| CN(CCOCC(=O)NC1CCC(C(c2ccccc2)N2CCCC2)CC1)S(=O)(=O)c1c(Cl)cc(Cl)cc1Cl (stereo not drawn) [Example 606, 2-{2-[methyl-(2,4,6-trichlorobenzenesulfonyl)-amino]-ethoxy}-N-[4-(phenylpyrrolidin-1-yl-methyl)-cyclohexyl]-acetamide] | – | – | inhibition at 1 µM (human μ opiate receptor; [2]): 46%; inhibition at 10 µM [1, 3]: 85% |
| CN(C)C(c1ccccc1)C1CCC(CNC(=O)COCCN(C)S(=O)(=O)c2c(Cl)cc(Cl)cc2Cl)CC1 (stereo not drawn) [Example 614, N-[4-(dimethylaminophenylmethyl)-cyclohexylmethyl]-2-{2-[(2,4,6-trichlorobenzenesulfonyl)-methylamino]-ethoxy}-acetamide] | – | – | inhibition at 1 µM (human μ opiate receptor; [2]): 96%; inhibition at 10 µM [1, 3]: 90% |
